Measurements taken from PubChem BioAssay AID1773 (Sanford-Burnham Center for Chemical Genomics, 2009).

Test system: MDA-MB-435 TRAIL potentiation, ATPlite cytotoxicity, 24 h
Assay: PubChem AID 1773
Details: stronger effect = higher value

Question: Which results are given for `CSc1nc(-c2ccc(C)cc2)nc(C(Cl)Cl)n1`?
Answer: cytotoxicity (at 5 µM): 50%; cytotoxicity with 30 ng/mL TRAIL (at 5 µM): 91%; cytotoxicity (compound 2.5 uM plus TRAIL 10, at 2.5 µM): 84%; cytotoxicity (compound alone cytotoxicity, at 5 µM): -1%; cytotoxicity (compound plus 100 ng/mL TRAIL, at 5 µM): 83%
